Patent publication US8691986B2, “Azetidine and piperidine compounds useful as PDE10 inhibitors” (Amgen Inc., priority 2012, dated 2014)

Key:
[1] = target: human PDE2A1 (Homo sapiens (Human), UniProt O00408); assay: PDE2A inhibition, PDE IMAP TR-FRET assay; assay type: biochemical; settings: FAM-cAMP substrate
Method: Purified human PDE2A1 and PDE10A2 enzymes were obtained from BPS Bioscience (San Diego, Calif.). IMAP™ TR-FRET progressive binding system, FAM-cAMP substrate were from Molecular Devices (Sunnyvale, Calif.).
The PDE IMAP assay was conducted in a 384-well black Greiner polypropylene plate (Sigma, St. Louis, Mo.). PDE inhibitors were serial diluted in 100% DMSO and dispensed into assay plate at […] per well using Echo® Liquid Handling System from LABCYTE. Ten μL of PDE enzyme in IMAP reaction buffer (10 mM Tris-HCl, pH 7.2, 10 mM MgCl2, 0.05% NaN3, and 0.01% Tween-20) was added into the assay wells. The PDE enzyme concentration used was based on each lot of enzyme activity, to ensure enzyme reaction falls in a linear range under assay condition. 1.4 nM of PDE2 or […] PDE10 were used in the assay system. Enzyme was pre-incubated with inhibitors for 60 minutes at room temperature before addition of 10 uL of substrate addition, which results in 100 nM of FAM-cAMP in the reaction. Enzyme reaction was allowed to proceed at room temperature for 90 min, and the reaction is stopped by 55 μl addition of binding reagent according to manufacturer's recommendation. The mixture is further incubated at room temperature for additional 4 hours, and signal was read on an Envision multimode reader (PerkinElmer). Fluorescence signals were measured at 520 nm and 485 nm. The signal ratio at 520/485 nm corresponded to the generation of reaction product of AMP, and it was used in all data analysis. Values from DMSO-treated wells were normalized to POC=100, and no-enzyme wells were normalized to POC=0. IC50 values were determined by using the Genedata Screener V9.0.1. The curve fitting algorithm used for dose response data analysis in Genedata Screener is a custom implementation of a robust curve-fitting algorithm called ROUT (Robust regression with outlier detection) and uses a four-parameter logistical (4 PL) Hill model.

[2] = target: PDE10 (Rattus norvegicus (Rat), UniProt Q9QYJ6); assay: PDE10 ex vivo receptor occupancy (RO) screening in rat striatum; settings: oral, 10 mpk, 1 h (footnote A)
Chain of PDE10 (Q9QYJ6 whole entry): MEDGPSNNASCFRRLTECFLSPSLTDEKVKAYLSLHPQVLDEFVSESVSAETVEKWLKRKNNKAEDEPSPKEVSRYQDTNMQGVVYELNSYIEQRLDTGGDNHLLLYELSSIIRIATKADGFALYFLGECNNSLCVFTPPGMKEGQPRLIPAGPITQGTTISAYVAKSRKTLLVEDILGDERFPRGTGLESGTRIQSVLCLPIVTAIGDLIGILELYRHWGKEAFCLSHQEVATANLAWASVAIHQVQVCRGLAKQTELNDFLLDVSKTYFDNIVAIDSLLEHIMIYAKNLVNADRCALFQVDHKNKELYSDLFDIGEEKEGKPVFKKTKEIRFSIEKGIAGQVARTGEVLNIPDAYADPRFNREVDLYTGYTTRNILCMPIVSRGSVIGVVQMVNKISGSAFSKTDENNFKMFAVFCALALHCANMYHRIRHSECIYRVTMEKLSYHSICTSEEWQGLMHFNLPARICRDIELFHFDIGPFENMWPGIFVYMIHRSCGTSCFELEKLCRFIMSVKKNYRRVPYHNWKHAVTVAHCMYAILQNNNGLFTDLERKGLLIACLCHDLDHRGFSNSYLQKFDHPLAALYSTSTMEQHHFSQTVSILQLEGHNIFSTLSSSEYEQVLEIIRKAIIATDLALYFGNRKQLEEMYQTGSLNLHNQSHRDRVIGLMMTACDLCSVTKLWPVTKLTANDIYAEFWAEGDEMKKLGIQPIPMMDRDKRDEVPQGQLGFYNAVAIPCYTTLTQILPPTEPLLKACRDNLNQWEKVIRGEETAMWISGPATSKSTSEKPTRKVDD
Method: The ex vivo screening protocol was approved by Amgen's Institutional Animal Care and Use Committee (IACUC) and in accordance with the National Institutes of Health Guide for Care and Use of Laboratory Animals in facilities accredited by the Association for the Assessment and Accreditation of Laboratory Animal Care (AALAC).
PDE10 inhibitors were dissolved in 2% Hydroxypropylmethylcellulose (HPMC), 1% Tween-80, pH 2.2 with methanesulfonic acid. Male Sprague Dawley® rats weighing 180-225 g (4 per group) were dosed orally with either vehicle or PDE10 inhibitors (3 mg/kg or 10 mg/kg) and then returned to their home cage to allow for absorption of the compounds. After one hour (with 10 mg/kg PDE10 inhibitor) or four hours (with 3 mg/kg or 10 mg/kg PDE10 inhibitor) rats were sacrificed by CO2 inhalation. Blood was obtained by heart puncture and plasma was frozen and stored at −80° C. for exposure analysis. Brains were removed and immediately frozen in chilled methylbutane, and stored at −80° C. until cutting. Three coronal brain slices per brain containing the striatum were cut at […] using a cryostat and placed onto microscope slides, air-dried and stored at −20° C. For radioligand binding experiments, slides were thawed at room temperature and then incubated with 1 nM a tritium labeled tracer compound (insert citation) in binding buffer (150 mM Phosphate-buffered saline containing 2 mM MgCl2 and 100 mM DTT, pH 7.4) for 1 minute at 4° C. To assess non-specific binding, slides containing adjacent brain sections were incubated in the same solution with addition of […] of an unlabelled, structurally unrelated PDE10 antagonist. Afterwards slides were washed 3 times in ice-cold binding buffer, dipped into distilled water to remove buffer salts, and dried under a stream of cold air. Emission of beta particles from the sections was counted for 8 hours in a Beta Imager 2000 (Biospace, Paris, France) and digitized and analyzed using M3 Vision software (Biospace, Paris, France). Total binding radioactivity in the striatum was measured as cpm/mm^2 in hand-drawn regions of interest and averaged across the three sections per brain. Non-specific binding was subtracted to obtain specific binding values and percent occupancy was calculated by setting vehicle specific binding as 0% occupancy.

Chain of human PDE2A1 (O00408 other isoform, or with tags, fused parts or gaps): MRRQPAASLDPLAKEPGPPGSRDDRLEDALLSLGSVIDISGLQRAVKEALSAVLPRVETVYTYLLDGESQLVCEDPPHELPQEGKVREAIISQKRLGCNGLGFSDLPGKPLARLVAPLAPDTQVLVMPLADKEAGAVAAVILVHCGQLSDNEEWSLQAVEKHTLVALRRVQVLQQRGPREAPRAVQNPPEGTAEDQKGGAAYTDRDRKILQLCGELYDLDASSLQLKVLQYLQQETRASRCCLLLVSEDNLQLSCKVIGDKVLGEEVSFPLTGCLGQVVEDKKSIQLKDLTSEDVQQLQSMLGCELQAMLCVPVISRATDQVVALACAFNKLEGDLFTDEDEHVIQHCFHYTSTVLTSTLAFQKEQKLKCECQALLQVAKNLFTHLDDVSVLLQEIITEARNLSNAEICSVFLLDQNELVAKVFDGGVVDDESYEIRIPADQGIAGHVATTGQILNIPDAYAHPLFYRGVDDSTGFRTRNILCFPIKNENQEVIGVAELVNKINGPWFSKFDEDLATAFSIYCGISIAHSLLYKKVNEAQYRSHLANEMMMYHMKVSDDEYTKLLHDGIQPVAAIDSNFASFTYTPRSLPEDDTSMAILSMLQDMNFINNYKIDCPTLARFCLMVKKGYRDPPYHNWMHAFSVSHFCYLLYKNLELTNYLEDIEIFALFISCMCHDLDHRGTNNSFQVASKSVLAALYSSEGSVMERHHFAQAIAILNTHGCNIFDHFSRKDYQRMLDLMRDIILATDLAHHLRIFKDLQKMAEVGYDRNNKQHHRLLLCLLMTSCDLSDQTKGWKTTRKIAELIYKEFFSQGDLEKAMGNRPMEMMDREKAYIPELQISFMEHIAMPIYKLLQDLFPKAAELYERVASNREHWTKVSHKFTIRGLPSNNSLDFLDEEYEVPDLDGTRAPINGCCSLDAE

NC(=O)c1ccc(-c2nccnc2C2CN(c3ccc4ccccc4n3)C2)cc1F [Compound 16, 2-fluoro-4-(3-(1-(quinolin-2-yl)azetidin-3-yl)pyrazin-2-yl)benzamide, reference compound]
IC50 [1]: 3.3 µM | receptor occupancy at 10 mg/kg [2]: 52.3%

NC(=O)c1ccc(-c2nccnc2C2CN(c3ccc4ccccc4n3)C2)cc1 [Compound 15, 4-(3-(1-(2-quinolinyl)-3-azetidinyl)-2-pyrazinyl)benzamide, reference compound]
IC50 [1]: 10 µM | receptor occupancy at 10 mg/kg [2]: 47.7%

CNC(=O)c1cccc(-c2nccnc2C2CN(c3ccc4ccccc4n3)C2)c1 [Compound 17, N-methyl-3-(3-(1-(quinolin-2-yl)azetidin-3-yl)pyrazin-2-yl)benzamide, reference compound]
IC50 [1]: 2.16 µM | receptor occupancy at 10 mg/kg [2]: 72%
